Data taken from the supplement of paper PMC10307832.

How the values were obtained:
Experiment in all cases: relative viability (nuclei count vs DMSO), 5 days (fraction); higher = more cells survive
[1] = compound: CCN1C(=O)C2=CC(=C(N=C2N(C1=O)C3CC3)N)C(=O)N
Method in brief: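 Vehicle-anchored 1536-well plates of lung cancer cell lines, held overnight at 37 °C, were pinned with five library-drug doses (not always all listed) spaced by √10. No medium change followed over the next 5 days, after which the cells were fixed, permeabilised and Hoechst-stained together and imaged at 4×. Nuclei were counted with MetaXpress, and viability is treated-well nuclei over vehicle-well nuclei, taken as a median across plates. Plates passed with control CV below 25% and at least one doubling.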

[2] = compound: CCN1C(=O)C2=CC(=C(N=C2N(C1=O)C3CC3)N)C(=O)N + C[C@]1(O)C[C@@H](c2nc(-c3ccc4ccc(-c5ccccc5)nc4c3)c3c(N)nccn32)C1 [Linsitinib] (partner 1 µM)
Method in brief: (§1)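 Five library-drug doses in √10 steps were combined with a fixed anchor-drug dose, or a single drug was given alone, by pin tool to lung cancer cell lines in 1536-well plates the day after seeding. Nuclei were stained and counted after 5 days. Relative viability is the nuclei count in treated wells over that in vehicle wells, taken as the median of duplicate plates.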

[3] = compound: CCN1C(=O)C2=CC(=C(N=C2N(C1=O)C3CC3)N)C(=O)N + COc1cc2c(Oc3ccc(NC(=O)C4(C(=O)Nc5ccc(F)cc5)CC4)cc3F)ccnc2cc1OCCCN1CCOCC1 [Foretinib] (partner 0.25 µM)
Method in brief: as §1

[4] = compound: CCN1C(=O)C2=CC(=C(N=C2N(C1=O)C3CC3)N)C(=O)N + C[C@@H](Oc1cc(-c2cnn(C3CCNCC3)c2)cnc1N)c1c(Cl)ccc(F)c1Cl [Crizotinib] (partner 1 µM)
Method in brief: as §1

[5] = compound: CCN1C(=O)C2=CC(=C(N=C2N(C1=O)C3CC3)N)C(=O)N + N=C(N)NC(=N)NCCc1ccccc1 [Phenformin] (partner 250 µM)
Method in brief: as §1

Cell Line	relative viability ([1]; 0.253 µM)	relative viability ([1]; 0.8 µM)	relative viability ([1]; 2.53 µM)	relative viability ([1]; 8 µM)	relative viability ([2]; first compound 0.253 µM)	relative viability ([2]; first compound 0.8 µM)	relative viability ([2]; first compound 2.53 µM)	relative viability ([2]; first compound 8 µM)	relative viability ([3]; first compound 0.253 µM)	relative viability ([3]; first compound 0.8 µM)	relative viability ([3]; first compound 2.53 µM)	relative viability ([3]; first compound 8 µM)	relative viability ([4]; first compound 0.253 µM)	relative viability ([4]; first compound 0.8 µM)	relative viability ([4]; first compound 2.53 µM)	relative viability ([4]; first compound 8 µM)	relative viability ([5]; first compound 0.253 µM)	relative viability ([5]; first compound 0.8 µM)	relative viability ([5]; first compound 2.53 µM)	relative viability ([5]; first compound 8 µM)
PC-3 [JPC-3]	1.06	1.01	1.06	1.08	0.982	0.933	0.92	0.919	1.02	1.03	1	0.929	1.04	0.953	0.914	0.94	0.468	0.498	0.508	0.448
UMC-11	0.946	0.935	0.951	0.969	0.981	1.01	1.13	1.15	1.02	1.05	1.1	1.13	0.619	0.632	0.584	0.611	0.322	0.319	0.304	0.293
NCI-H1437	0.982	0.979	0.969	0.972	0.929	1.04	1.01	1.11	1.23	1.21	1.19	1.21	0.938	0.993	0.818	1.09	0.269	0.363	0.334	0.276
NCI-H1734	0.9	0.903	0.948	0.943	0.837	0.849	0.852	0.884	0.835	0.764	0.745	1.01	0.716	0.635	0.618	0.769	0.381	0.365	0.384	0.361
LK-2	0.979	0.981	1.03	1.04	0.575	0.612	0.655	0.616	1.03	1.11	1.05	1.6	0.412	0.226	0.204	0.153	0.375	0.591	0.408	0.535
HCC-15	0.943	1.02	0.994	1.03	0.867	0.908	0.879	0.913	1.1	1.05	1.07	0.985	0.789	0.829	0.909	0.872	0.456	0.472	0.473	0.44
HCC-366	0.981	0.968	0.996	1.03	0.726	0.65	0.623	0.6		0.91	0.951	0.919	0.615	0.6	0.537	0.968		0.595	0.589	0.589
NCI-H661	1.03	0.991	0.972	0.961	0.568	0.636	0.558	0.603	0.989	1.08	0.939	1.01	1.05	1.05	0.987	1.06	0.287	0.302	0.267	0.278
NCI-H2347	0.98	1.04	1.08	1	1.04	1.03	0.925	0.845	0.797	1.09	1.43	1.09	0.862	0.841	0.712	0.719	0.373	0.424	0.547	0.418
LXF-289	1.01	1.07	0.972	1.01	0.968	0.96	0.833	0.958	0.995	1	0.966	1	0.834	0.852	0.759	0.84	0.519	0.552	0.519	0.538
BEN	0.952	0.885	1.11	1.02	0.961	0.92	0.919	0.954	1.13	0.618	0.69	0.558	0.713	0.865	0.903	1.07	0.251	0.273	0.264	0.284
NCI-H2023	0.937	0.901	0.836	0.896	0.68	0.621	0.548	0.652	0.756	0.743	0.845	0.848	0.639	0.622	0.585	0.606	0.411	0.42	0.357	0.388
NCI-H727	0.98	0.892	0.976	0.828	0.297	0.354	0.282	0.272	1.06	0.889	0.888	1.23	0.899	0.797	0.843	0.882	0.625	0.455	0.459	0.666
